{"source": "EPA's ToxRefDB 2", "key": {"rat [1]": {"system": "rat", "conditions": "Sub-acute repeat dose toxicity, sprague dawley, Oral, Gavage/Intubation, dose end: 4 week, group: systemic"}, "mouse [2]": {"system": "mouse", "conditions": "Carcinogenicity; cd1; Oral; Gavage/Intubation; dose end: 2 year; group: systemic; systemic / in life observation / body weight / body weight gain + systemic / in life observation / clinical signs / [other] + systemic / in …"}, "rat [3]": {"system": "rat", "conditions": "Fertility (Segment I), sprague dawley, Oral, Gavage/Intubation, dose end: 7 GD, group: parental"}, "rabbit [4]": {"system": "rabbit", "conditions": "Prenatal developmental toxicity study, new zealand white, Oral, Gavage/Intubation, dose end: 18 GD, group: maternal"}, "rat [5]": {"system": "rat", "conditions": "Peri- and post-natal toxicity study (Segment III), sprague dawley, Oral, Gavage/Intubation, dose end: 4 PND"}, "dog [6]": {"system": "dog", "conditions": "Chronic toxicity, beagle, Oral, Capsule, dose end: 52 week, group: systemic"}, "mouse [7]": {"system": "mouse", "conditions": "Subchronic oral toxicity in rodents, cd1, Gavage/Intubation, dose end: 94 days, group: systemic"}, "rat [8]": {"system": "rat", "conditions": "Prenatal developmental toxicity study; sprague dawley; Oral; Gavage/Intubation; dose end: 15 GD; group: maternal; systemic / in life observation / clinical signs / salivation"}, "rabbit [9]": {"system": "rabbit", "conditions": "Prenatal developmental toxicity study, new zealand white, Oral, Gavage/Intubation, dose end: 18 GD, group: maternal", "remark": "listed apart in the source"}, "rat [10]": {"system": "rat", "conditions": "Prenatal developmental toxicity study; sprague dawley; Oral; Gavage/Intubation; dose end: 15 GD; group: maternal; reproductive / reproductive performance / estrous cycle / corpora lutea + reproductive / reproductive performance / implantations / …"}, "rat [11]": {"system": "rat", "conditions": "Peri- and post-natal toxicity study (Segment III), sprague dawley, Oral, Gavage/Intubation, dose end: 21 PND"}, "dog [12]": {"system": "dog", "conditions": "Chronic toxicity; beagle; Oral; Capsule; dose end: 6 month; group: systemic; systemic / clinical chemistry / triglycerides / triglycerides + systemic / in life observation / body weight / body weight gain + systemic…"}, "rat [13]": {"system": "rat", "conditions": "Chronic toxicity, sprague dawley, Oral, Gavage/Intubation, dose end: 6 month, group: systemic"}, "rat [14]": {"system": "rat", "conditions": "Carcinogenicity; sprague dawley; Oral; Gavage/Intubation; dose end: 2 year; group: systemic; systemic / in life observation / body weight / body weight gain + systemic / in life observation / clinical signs / [other] + systemic / in …"}, "[15]": {"conditions": "systemic / clinical chemistry / potassium / potassium + systemic / clinical chemistry / sodium / sodium + systemic / in life observation / …"}, "[16]": {"conditions": "systemic / in life observation / clinical signs / motor activity"}, "[17]": {"conditions": "systemic / in life observation / clinical signs / abnormal respiratory sounds + systemic / in life observation / clinical signs / urogenital…"}, "[18]": {"conditions": "systemic / in life observation / clinical signs / abnormal respiratory sounds + systemic / in life observation / food consumption / food …"}, "[19]": {"conditions": "systemic / in life observation / body weight / body weight gain + systemic / in life observation / food consumption / food consumption"}, "[20]": {"conditions": "systemic / in life observation / food consumption / food consumption"}, "[21]": {"conditions": "group: maternal, reproductive / offspring survival early / birth index / live birth index"}, "[22]": {"conditions": "group: parental, systemic / in life observation / clinical signs / [other] + systemic / in life observation / clinical signs / labored respiration + systemic…"}, "[23]": {"conditions": "group: parental, systemic / in life observation / clinical signs / [other] + systemic / in life observation / clinical signs / salivation + systemic / in …"}, "[24]": {"conditions": "systemic / clinical chemistry / triglycerides / triglycerides + systemic / in life observation / body weight / body weight gain"}, "[25]": {"conditions": "systemic / clinical chemistry / triglycerides / triglycerides + systemic / in life observation / body weight / body weight gain + systemic…"}, "[26]": {"conditions": "systemic / clinical chemistry / calcium / calcium + systemic / clinical chemistry / cholesterol / cholesterol + systemic / clinical …"}, "[27]": {"conditions": "systemic / clinical chemistry / potassium / potassium + systemic / clinical chemistry / bilirubin / total bilirubin + systemic / clinical …"}, "[28]": {"conditions": "reproductive / reproductive performance / aborted / aborted + reproductive / reproductive performance / postimplantation loss / …"}, "[29]": {"conditions": "group: maternal, reproductive / reproductive performance / reproductive performance other / NOS"}, "[30]": {"conditions": "group: maternal, reproductive / reproductive performance / reproductive performance other / NOS + reproductive / offspring survival early / litter viability …"}, "[31]": {"conditions": "group: offspring, systemic / in life observation / body weight / offspring (pup) weight"}, "[32]": {"conditions": "group: parental, systemic / in life observation / clinical signs / abnormal respiratory sounds + systemic / in life observation / clinical signs / emaciation…"}, "[33]": {"conditions": "group: parental, systemic / in life observation / mortality / mortality"}, "[34]": {"conditions": "systemic / clinical chemistry / chloride / chloride + systemic / clinical chemistry / triglycerides / triglycerides + systemic / clinical …"}}}
{"smiles": "CCOC(=O)COc1ccc2c(c1)CC(NCC(O)c1cccc(Cl)c1)CC2.Cl", "note": "(stereo not drawn)", "values": [{"measurement": "LOAEL", "setting": "rat [1]; [15]", "value": "> 500", "unit": "mg/kg/day"}, {"measurement": "NOAEL", "setting": "rat [1]; [15]", "value": "≥ 500", "unit": "mg/kg/day"}, {"measurement": "LEL", "setting": "rat [1]; [16]", "value": 20, "unit": "mg/kg/day"}, {"measurement": "NEL", "setting": "rat [1]; [16]", "value": "< 20", "unit": "mg/kg/day"}, {"measurement": "LEL", "setting": "mouse [2]", "value": 25, "unit": "mg/kg/day"}, {"measurement": "LOAEL", "setting": "mouse [2]", "value": "> 100", "unit": "mg/kg/day"}, {"measurement": "NEL", "setting": "mouse [2]", "value": "< 25", "unit": "mg/kg/day"}, {"measurement": "NOAEL", "setting": "mouse [2]", "value": "≥ 100", "unit": "mg/kg/day"}, {"measurement": "LOAEL", "setting": "rat [3]; [17]", "value": "> 750", "unit": "mg/kg/day"}, {"measurement": "NOAEL", "setting": "rat [3]; [17]", "value": "≥ 750", "unit": "mg/kg/day"}, {"measurement": "LEL", "setting": "rat [3]; [18]", "value": 50, "unit": "mg/kg/day"}, {"measurement": "NEL", "setting": "rat [3]; [18]", "value": "< 50", "unit": "mg/kg/day"}, {"measurement": "LOAEL", "setting": "rabbit [4]; [19]", "value": "> 500", "unit": "mg/kg/day"}, {"measurement": "NOAEL", "setting": "rabbit [4]; [19]", "value": "≥ 500", "unit": "mg/kg/day"}, {"measurement": "LEL", "setting": "rabbit [4]; [20]", "value": 50, "unit": "mg/kg/day"}, {"measurement": "NEL", "setting": "rabbit [4]; [20]", "value": "< 50", "unit": "mg/kg/day"}, {"measurement": "LEL", "setting": "rat [5]; [21]", "value": 200, "unit": "mg/kg/day"}, {"measurement": "LOAEL", "setting": "rat [5]; [21]", "value": "> 750", "unit": "mg/kg/day"}, {"measurement": "NEL", "setting": "rat [5]; [21]", "value": 50, "unit": "mg/kg/day"}, {"measurement": "NOAEL", "setting": "rat [5]; [21]", "value": "≥ 750", "unit": "mg/kg/day"}, {"measurement": "LOAEL", "setting": "rat [5]; [22]", "value": "> 750", "unit": "mg/kg/day"}, {"measurement": "NOAEL", "setting": "rat [5]; [22]", "value": "≥ 750", "unit": "mg/kg/day"}, {"measurement": "LEL", "setting": "rat [5]; [23]", "value": 50, "unit": "mg/kg/day"}, {"measurement": "NEL", "setting": "rat [5]; [23]", "value": "< 50", "unit": "mg/kg/day"}, {"measurement": "LEL", "setting": "dog [6]; [24]", "value": 10, "unit": "mg/kg/day"}, {"measurement": "NEL", "setting": "dog [6]; [24]", "value": "< 10", "unit": "mg/kg/day"}, {"measurement": "LOAEL", "setting": "dog [6]; [25]", "value": "> 250", "unit": "mg/kg/day"}, {"measurement": "NOAEL", "setting": "dog [6]; [25]", "value": "≥ 250", "unit": "mg/kg/day"}, {"measurement": "LOAEL", "setting": "mouse [7]; [26]", "value": "> 500", "unit": "mg/kg/day"}, {"measurement": "NOAEL", "setting": "mouse [7]; [26]", "value": "≥ 500", "unit": "mg/kg/day"}, {"measurement": "LEL", "setting": "mouse [7]; [27]", "value": 100, "unit": "mg/kg/day"}, {"measurement": "NEL", "setting": "mouse [7]; [27]", "value": "< 100", "unit": "mg/kg/day"}, {"measurement": "LEL", "setting": "rat [8]", "value": 200, "unit": "mg/kg/day"}, {"measurement": "LOAEL", "setting": "rat [8]", "value": "> 750", "unit": "mg/kg/day"}, {"measurement": "NEL", "setting": "rat [8]", "value": 50, "unit": "mg/kg/day"}, {"measurement": "NOAEL", "setting": "rat [8]", "value": "≥ 750", "unit": "mg/kg/day"}, {"measurement": "LOAEL", "setting": "rabbit [9]; [28]", "value": "> 500", "unit": "mg/kg/day"}, {"measurement": "NEL", "setting": "rabbit [9]; [28]", "value": 50, "unit": "mg/kg/day"}, {"measurement": "NOAEL", "setting": "rabbit [9]; [28]", "value": "≥ 500", "unit": "mg/kg/day"}, {"measurement": "LEL", "setting": "rabbit [9]; reproductive / reproductive performance / postimplantation loss / postimplantation loss", "value": 160, "unit": "mg/kg/day"}, {"measurement": "LEL", "setting": "rat [10]", "value": 200, "unit": "mg/kg/day"}, {"measurement": "LOAEL", "setting": "rat [10]", "value": "> 750", "unit": "mg/kg/day"}, {"measurement": "NEL", "setting": "rat [10]", "value": 50, "unit": "mg/kg/day"}, {"measurement": "NOAEL", "setting": "rat [10]", "value": "≥ 750", "unit": "mg/kg/day"}, {"measurement": "LEL", "setting": "rat [11]; [29]", "value": 50, "unit": "mg/kg/day"}, {"measurement": "NEL", "setting": "rat [11]; [29]", "value": "< 50", "unit": "mg/kg/day"}, {"measurement": "LOAEL", "setting": "rat [11]; [30]", "value": "> 750", "unit": "mg/kg/day"}, {"measurement": "NOAEL", "setting": "rat [11]; [30]", "value": "≥ 750", "unit": "mg/kg/day"}, {"measurement": "LEL", "setting": "rat [11]; [31]", "value": 50, "unit": "mg/kg/day"}, {"measurement": "LOAEL", "setting": "rat [11]; [31]", "value": 200, "unit": "mg/kg/day"}, {"measurement": "NEL", "setting": "rat [11]; [31]", "value": "< 50", "unit": "mg/kg/day"}, {"measurement": "NOAEL", "setting": "rat [11]; [31]", "value": 50, "unit": "mg/kg/day"}, {"measurement": "LOAEL", "setting": "rat [11]; [32]", "value": "> 750", "unit": "mg/kg/day"}, {"measurement": "NOAEL", "setting": "rat [11]; [32]", "value": "≥ 750", "unit": "mg/kg/day"}, {"measurement": "LEL", "setting": "rat [11]; [33]", "value": 50, "unit": "mg/kg/day"}, {"measurement": "NEL", "setting": "rat [11]; [33]", "value": "< 50", "unit": "mg/kg/day"}, {"measurement": "LEL", "setting": "dog [12]", "value": 10, "unit": "mg/kg/day"}, {"measurement": "LOAEL", "setting": "dog [12]", "value": "> 250", "unit": "mg/kg/day"}, {"measurement": "NEL", "setting": "dog [12]", "value": "< 10", "unit": "mg/kg/day"}, {"measurement": "NOAEL", "setting": "dog [12]", "value": "≥ 250", "unit": "mg/kg/day"}, {"measurement": "LOAEL", "setting": "rat [13]; [34]", "value": "> 500", "unit": "mg/kg/day"}, {"measurement": "NOAEL", "setting": "rat [13]; [34]", "value": "≥ 500", "unit": "mg/kg/day"}, {"measurement": "LEL", "setting": "rat [13]; [25]", "value": 20, "unit": "mg/kg/day"}, {"measurement": "NEL", "setting": "rat [13]; [25]", "value": "< 20", "unit": "mg/kg/day"}, {"measurement": "LEL", "setting": "rat [14]", "value": 50, "unit": "mg/kg/day"}, {"measurement": "LOAEL", "setting": "rat [14]", "value": "> 500", "unit": "mg/kg/day"}, {"measurement": "NEL", "setting": "rat [14]", "value": "< 50", "unit": "mg/kg/day"}, {"measurement": "NOAEL", "setting": "rat [14]", "value": "≥ 500", "unit": "mg/kg/day"}]}
